Assay results taken from US20160102073A1, “2-HYDROXYMETHYL-SUBSTITUTED OREXIN RECEPTOR ANTAGONISTS” (MERCK SHARP & DOHME CORP., priority 2013, published 2016).

Tests used:
[1] = target: T1, human orexin-1 receptor (hOX1R) (Homo sapiens, UniProt O43613); assay: FLIPR Ca2+ Flux Assay, CHO cells expressing hOX1R; format: cell-based; conditions: agonist 70 pM Ala-6,12 orexin-A
T1 construct: expressed in transfected cells; host or cells: Chinese hamster ovary (CHO) cells, grown under G418 selection
T1 sequence (O43613 1-425): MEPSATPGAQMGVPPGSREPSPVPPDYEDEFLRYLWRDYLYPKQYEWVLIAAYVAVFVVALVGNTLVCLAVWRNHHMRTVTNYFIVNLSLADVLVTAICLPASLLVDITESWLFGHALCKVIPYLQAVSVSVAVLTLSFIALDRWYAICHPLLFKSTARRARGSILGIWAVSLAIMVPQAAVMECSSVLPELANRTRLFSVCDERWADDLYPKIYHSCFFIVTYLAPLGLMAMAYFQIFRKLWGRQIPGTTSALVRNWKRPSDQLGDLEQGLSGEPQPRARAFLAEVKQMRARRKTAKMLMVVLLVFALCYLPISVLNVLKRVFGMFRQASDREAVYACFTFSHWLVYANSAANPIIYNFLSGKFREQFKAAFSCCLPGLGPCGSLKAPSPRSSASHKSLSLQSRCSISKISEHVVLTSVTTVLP
Method: (§1) Chinese hamster ovary (CHO) cells expressing the human orexin-1 receptor (hOX1R) or the human orexin-2 receptor (hOX2R) were grown in Iscove's modified DMEM containing 2 mM L-glutamine, […], 1% hypoxanthine-thymidine supplement, 100 U/ml penicillin, 100 μg/ml streptomycin and 10% heat-inactivated fetal calf serum (FCS). The cells were seeded at 20,000 cells/well into Becton-Dickinson black 384-well clear bottom sterile plates coated with poly-D-lysine. All reagents were from GIBCO-Invitrogen Corp. The seeded plates were incubated overnight at 37° C. and 5% CO2. Ala-6,12 human orexin-A, used as the agonist, was prepared as a 1 mM stock solution in 1% bovine serum albumin (BSA) and diluted in assay buffer (HBSS containing 20 mM HEPES, 0.1% BSA and 2.5 mM probenecid, pH7.4) for use in the assay at a final concentration of 70 pM. Test compounds were prepared as 10 mM stock solution in DMSO, then diluted in 384-well plates, first in DMSO, then assay buffer.
On the day of the assay, cells were washed 3× with 100 μl assay buffer and then incubated for 60 minutes (37° C., 5% CO2) in 60 μl assay buffer containing 1 μM Fluo-4AM ester, 0.02% pluronic acid, and 1% BSA. The dye loading solution was then aspirated and cells were washed 3× with 100 μl assay buffer. 30 μl of that same buffer was left in each well. Within the Fluorescent Imaging Plate Reader (FLIPR, Molecular Devices), test compounds were added to the plate in a volume of 25 μl, incubated for 5 minutes, and then 25 μl of agonist was added. Fluorescence was measured for each well at 1 second intervals for 5 minutes, and the height of each fluorescence peak was compared to the height of the fluorescence peak induced by 70 pM of Ala-6,12 orexin-A with buffer in place of test compound.

[2] = target: T2, human orexin-2 receptor (hOX2R) (Homo sapiens, UniProt O43614); assay: FLIPR Ca2+ Flux Assay, CHO cells expressing hOX2R; format: cell-based; conditions: agonist 70 pM Ala-6,12 orexin-A
T2 construct: expressed in transfected cells; host or cells: Chinese hamster ovary (CHO) cells, grown under G418 selection
T2 sequence (O43614 1-444): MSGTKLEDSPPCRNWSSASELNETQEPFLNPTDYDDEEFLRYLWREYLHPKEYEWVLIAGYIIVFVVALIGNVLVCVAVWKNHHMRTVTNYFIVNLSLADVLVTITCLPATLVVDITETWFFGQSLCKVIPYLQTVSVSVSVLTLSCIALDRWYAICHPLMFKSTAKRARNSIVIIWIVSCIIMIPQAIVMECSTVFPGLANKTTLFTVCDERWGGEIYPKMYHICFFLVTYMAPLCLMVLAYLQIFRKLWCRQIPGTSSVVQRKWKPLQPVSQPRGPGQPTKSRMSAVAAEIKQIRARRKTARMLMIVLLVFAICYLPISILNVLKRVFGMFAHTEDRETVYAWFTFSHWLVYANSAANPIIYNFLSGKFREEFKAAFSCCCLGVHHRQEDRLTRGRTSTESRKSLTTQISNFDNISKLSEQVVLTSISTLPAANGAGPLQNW
Method: The utility of the compounds in accordance with the present invention as orexin receptor OX1R and/or OX2R antagonists may be readily determined without undue experimentation by methodology well known in the art, including the “FLIPR Ca^2+ Flux Assay” (Okumura et al., Biochem. Biophys. Res. Comm. 280:976-981, 2001). In a typical experiment the OX1 and OX2 receptor antagonistic activity of the compounds of the present invention was determined in accordance with the following experimental method. For intracellular calcium measurements, Chinese hamster ovary (CHO) cells expressing the rat orexin-1 receptor or the human orexin-2 receptor, are grown in Iscove's modified DMEM containing 2 mM L-glutamine, […], 1% hypoxanthine-thymidine supplement, 100 U/ml penicillin, 100 μg/ml streptomycin and 10% heat-inactivated fetal calf serum (FCS). The cells are seeded at 20,000 cells/well into Becton-Dickinson black 384-well clear bottom sterile plates coated with poly-D-lysine. All reagents were from GIBCO-Invitrogen Corp. The seeded plates are incubated overnight at 37° C. and 5% CO2. Ala-6,12 human orexin-A as the agonist is prepared as a 1 mM stock solution in 1% bovine serum albumin (BSA) and diluted in assay buffer (HBSS containing 20 mM HEPES, 0.1% BSA and 2.5 mM probenecid, pH7.4) for use in the assay at a final concentration of 70 pM. Test compounds are prepared as 10 mM stock solution in DMSO, then diluted in 384-well plates, first in DMSO, then assay buffer. On the day of the assay, cells are washed 3 times with 100 μl assay buffer and then incubated for 60 min (37° C., 5% CO2) in 60 μl assay buffer containing 1 μM Fluo-4AM ester, 0.02% pluronic acid, and 1% BSA. The dye loading solution is then aspirated and cells are washed 3 times with 100 μl assay buffer. 30 μl of that same buffer is left in each well. Within the Fluorescent Imaging Plate Reader (FLIPR, Molecular Devices), test compounds are added to the plate in a volume of 25 μl, incubated for 5 min and finally 25 μl of agonist is added. Fluorescence is measured for each well at 1 second intervals for 5 minutes and the height of each fluorescence peak is compared to the height of the fluorescence peak induced by 70 pM Ala-6,12 orexin-A with buffer in place of antagonist. For each antagonist, IC50 value (the concentration of compound needed to inhibit 50% of the agonist response) is determined. Alternatively, compound potency can be assessed by a radioligand binding assay (described in Bergman et. al. Bioorg. Med. Chem. Lett. 2008, 18, 1425-1430) in which the inhibition constant (Ki) is determined in membranes prepared from CHO cells expressing either the OX1 or OX2 receptor. The intrinsic orexin receptor antagonist activity of a compound which may be used in the present invention may be determined by these assays.
as §1, with “buffer. […]” for “buffer.”

With `COc1ccc(C(=O)N2C[C@H](Oc3ncccc3C(C)(C)O)CC[C@H]2C)c(C2CC2)c1` [Example 15, 2-[2-({(3R,6R)-1-[(2-cyclopropyl-4-methoxyphenyl)carbonyl]-6-methylpiperidin-3-yl}oxy)pyridin-3-yl]propan-2-ol] the IC50 [1] was 2300 nM and the IC50 [2] was 148 nM.
Compound `Cc1ccc(C(=O)N2C[C@H](Oc3ncccc3C(C)(C)O)CC[C@H]2C)c(C2CC2)c1` [Example 16, 2-[2-({(3R,6R)-1-[(2-cyclopropyl-4-methylphenyl)carbonyl]-6-methylpiperidin-3-yl}oxy)pyridin-3-yl]propan-2-ol] has an IC50 [1] of 349 nM and an IC50 [2] of 135 nM.
In the case of `Cc1ccc(-n2nccn2)c(C(=O)N2C[C@H](Oc3ncccc3C(C)(C)O)CC[C@H]2C)c1` [Example 17, 2-(2-{[(3R,6R)-6-methyl-1-{[5-methyl-2-(2i-1,2,3-triazol-2-yl)phenyl]carbonyl}piperidin-3-yl]oxy}pyridin-3-yl)propan-2-ol], the IC50 [1] is reported as 50 nM and the IC50 [2] is reported as 37 nM.
For `C[C@@H]1CC[C@@H](Oc2ncccc2C(C)(C)O)CN1C(=O)c1ccsc1-n1nccn1` [Example 18, 2-(2-{[(3R,6R)-6-methyl-1-{[2-(2H-1,2,3-triazol-2-yl)thiophen-3-yl]carbonyl}piperidin-3-yl]oxy}pyridin-3-yl)propan-2-ol], the IC50 [1] was 18 nM and the IC50 [2] was 9 nM.
Work on `C[C@@H]1CC[C@@H](Oc2ncccc2C(C)(C)O)CN1C(=O)c1ccsc1-c1ncccn1` [Example 19, 2-[2-({(3R,6R)-6-Methyl-1-[(2-pyrimidin-2-ylthiophen-3-yl)carbonyl]piperidin-3-yl}oxy)pyridin-3-yl]propan-2-ol] yielded an IC50 [1] of 12 nM and an IC50 [2] of 13 nM.
Compound `C[C@@H]1CC[C@@H](Oc2ncccc2C(C)(C)O)CN1C(=O)c1cccc(F)c1-c1ncccn1` [Example 20, 2-[2-({(3R,6R)-1-[(3-fluoro-2-pyrimidin-2-yl-phenyl)carbonyl]-6-methyl-piperidin-3-yl}oxy)pyridin-3-yl]propan-2-ol] has an IC50 [1] of 609 nM and an IC50 [2] of 98 nM.
For `C[C@@H]1CC[C@@H](Oc2ncccc2C(C)(C)O)CN1C(=O)c1cc(F)ccc1-c1ncccn1` [Example 22, 2-[2-({(3R,6R)-1-[(5-fluoro-2-pyrimidin-2-yl-phenyl)carbonyl]-6-methylpiperidin-3-yl}oxy)pyridin-3-yl]propan-2-ol], the IC50 [1] was 140 nM and the IC50 [2] was 82 nM.
With `C[C@@H]1CC[C@@H](Oc2ncccc2C(C)(C)O)CN1C(=O)c1ccccc1-c1ncccn1` [Example 23, 2-[2-({(3R,6R)-6-methyl-1-[(2-pyrimidin-2-ylphenyl)carbonyl]piperidin-3-yl}oxy)pyridin-3-yl] propan-2-ol] the IC50 [1] was 95 nM and the IC50 [2] was 69 nM.
`C[C@@H]1CC[C@@H](Oc2ncccc2C(C)(C)O)CN1C(=O)c1sccc1-c1ncccn1` [Example 24, 2-[2-({(3R,6R)-6-methyl-1-[(3-pyrimidin-2-yl-thiophen-2-yl)carbonyl]piperidin-3-yl}oxy)pyridin-3-yl] propan-2-ol] showed an IC50 [1] of 77 nM and an IC50 [2] of 35 nM.
Compound `Cc1ccc(C(C)(C)O)c(O[C@@H]2CC[C@@H](C)N(C(=O)c3ccccc3-n3nccn3)C2)n1` [Example 25, 2-(6-Methyl-2-{[(3R,6R)-6-methyl-1-{[2-(2H-1,2,3-triazol-2-yl)phenyl]carbonyl}piperidin-3-yl]oxy}pyridin-3-yl)propan-2-ol] has an IC50 [1] of 55 nM and an IC50 [2] of 77 nM.
For `COc1ccnc(O[C@@H]2CC[C@@H](C)N(C(=O)c3ccccc3-n3nccn3)C2)c1C(C)O` (stereo partly drawn) [Example 26, 1-(4-Methoxy-2-{[(3R,6R)-6-methyl-1-{[2-(2H-1,2,3-triazol-2-yl)phenyl]carbonyl}piperidin-3-yl]oxy}pyridin-3-yl)ethanol], the IC50 [1] was 463 nM and the IC50 [2] was 22.5 nM.
Compound `COc1ccnc(O[C@@H]2CC[C@@H](C)N(C(=O)c3ccccc3-n3nccn3)C2)c1C(C)(C)O` [Example 27, 2-(4-Methoxy-2-{[(3R,6R)-6-methyl-1-{[2-(2H-1,2,3-triazol-2-yl)phenyl]carbonyl}piperidin-3-yl]oxy}pyridin-3-yl)propan-2-ol] has an IC50 [1] of 395 nM and an IC50 [2] of 25 nM.
With `C[C@@H]1CC[C@@H](Oc2ncccc2[C@@H](C)O)CN1C(=O)c1ccccc1-n1nccn1` [Example 29, (1R)-1-(2-{[(3R,6R)-6-Methyl-1-{[2-(2H-1,2,3-triazol-2-yl)phenyl]carbonyl}piperidin-3-yl]oxy}pyridin-3-yl)ethanol] the IC50 [1] was 1160 nM and the IC50 [2] was 49 nM.
`C[C@H](O)c1cccnc1O[C@@H]1CC[C@@H](C)N(C(=O)c2ccccc2-n2nccn2)C1` [Example 30, (1S)-1-(2-{[(3R,6R)-6-Methyl-1-{[2-(2H-1,2,3-triazol-2-yl)phenyl]carbonyl}piperidin-3-yl]oxy}pyridin-3-yl)ethanol] showed an IC50 [1] of 76 nM and an IC50 [2] of 37 nM.
